According to PubChem BioAssay AID1259407 (Chemical Carcinogenesis Research Information System (CCRIS), 2018):
Active and inactive are the calls of the source. No rule for the calls is given here.

System: CCRIS mutagenicity, Ames/micronucleus/aberration tests
Test: CCRIS mutagenicity studies
[1] = Test System: AMES SALMONELLA TYPHIMURIUM, Strain/Indicator: TA97, Metabolic Activation: NONE, Method: PREINCUBATION
[2] = Test System: AMES SALMONELLA TYPHIMURIUM, Strain/Indicator: TA98, Metabolic Activation: NONE, Method: PREINCUBATION
[3] = Test System: AMES SALMONELLA TYPHIMURIUM, Strain/Indicator: TA100, Metabolic Activation: NONE, Method: PREINCUBATION
[4] = Test System: AMES SALMONELLA TYPHIMURIUM, Strain/Indicator: TA1535, Metabolic Activation: NONE, Method: PREINCUBATION
[5] = Test System: AMES SALMONELLA TYPHIMURIUM, Strain/Indicator: TA98, Metabolic Activation: HAMSTER, LIVER, S-9, AROCLOR 1254 (10%), Method: PREINCUBATION
[6] = Test System: AMES SALMONELLA TYPHIMURIUM, Strain/Indicator: TA98, Metabolic Activation: RAT, LIVER, S-9, AROCLOR 1254 (10%), Method: PREINCUBATION
[7] = Test System: AMES SALMONELLA TYPHIMURIUM, Strain/Indicator: TA100, Metabolic Activation: HAMSTER, LIVER, S-9, AROCLOR 1254 (10%), Method: PREINCUBATION
[8] = Test System: AMES SALMONELLA TYPHIMURIUM, Strain/Indicator: TA100, Metabolic Activation: RAT, LIVER, S-9, AROCLOR 1254 (10%), Method: PREINCUBATION
[9] = Test System: AMES SALMONELLA TYPHIMURIUM, Strain/Indicator: TA1535, Metabolic Activation: HAMSTER, LIVER, S-9, AROCLOR 1254 (10%), Method: PREINCUBATION
[10] = Test System: AMES SALMONELLA TYPHIMURIUM, Strain/Indicator: TA1535, Metabolic Activation: RAT, LIVER, S-9, AROCLOR 1254 (10%), Method: PREINCUBATION
[11] = Test System: AMES SALMONELLA TYPHIMURIUM, Strain/Indicator: TA1537, Metabolic Activation: NONE, Method: PREINCUBATION
[12] = Test System: AMES SALMONELLA TYPHIMURIUM, Strain/Indicator: TA98, Metabolic Activation: NONE, Method: STANDARD PLATE
[13] = Test System: AMES SALMONELLA TYPHIMURIUM, Strain/Indicator: TA100, Metabolic Activation: NONE, Method: STANDARD PLATE

O=S(=O)(O)c1cc(S(=O)(=O)O)c2c(N=Nc3ccccc3)c(O)ccc2c1
mutagenic call (End Point: IN VITRO CHROMOSOMAL ABERRATIONS, Test System: CHO CELLS, Metabolic Activation: NONE): inactive; negative | mutagenic call (End Point: IN VITRO CHROMOSOMAL ABERRATIONS, Test System: CHO CELLS, Metabolic Activation: RAT, LIVER, S-9, AROCLOR 1254): active; positive | mutagenic call (Test System: AMES SALMONELLA TYPHIMURIUM, Strain/Indicator: TA97, Metabolic Activation: HAMSTER, LIVER, S-9, AROCLOR 1254 (10 OR 30%), Method: PREINCUBATION): inactive; negative | mutagenic call [1]: inactive; negative | mutagenic call (Test System: AMES SALMONELLA TYPHIMURIUM, Strain/Indicator: TA97, Metabolic Activation: RAT, LIVER, S-9, AROCLOR 1254 (10 OR 30%), Method: PREINCUBATION): inactive; negative | mutagenic call (Test System: AMES SALMONELLA TYPHIMURIUM, Strain/Indicator: TA98, Metabolic Activation: HAMSTER, LIVER, S-9, AROCLOR 1254 (10 OR 30%), Method: PREINCUBATION): inactive; negative | mutagenic call [2]: inactive; negative | mutagenic call (Test System: AMES SALMONELLA TYPHIMURIUM, Strain/Indicator: TA98, Metabolic Activation: RAT, LIVER, S-9, AROCLOR 1254 (10 OR 30%), Method: PREINCUBATION): inactive; negative | mutagenic call (Test System: AMES SALMONELLA TYPHIMURIUM, Strain/Indicator: TA100, Metabolic Activation: HAMSTER, LIVER, S-9, AROCLOR 1254 (10 OR 30%), Method: PREINCUBATION): inactive; negative | mutagenic call [3]: inactive; negative | mutagenic call (Test System: AMES SALMONELLA TYPHIMURIUM, Strain/Indicator: TA100, Metabolic Activation: RAT, LIVER, S-9, AROCLOR 1254 (10 OR 30%), Method: PREINCUBATION): inactive; negative | mutagenic call (Test System: AMES SALMONELLA TYPHIMURIUM, Strain/Indicator: TA1535, Metabolic Activation: HAMSTER, LIVER, S-9, AROCLOR 1254 (10 OR 30%), Method: PREINCUBATION): inactive; negative | mutagenic call [4]: inactive; negative | mutagenic call (Test System: AMES SALMONELLA TYPHIMURIUM, Strain/Indicator: TA1535, Metabolic Activation: RAT, LIVER, S-9, AROCLOR 1254 (10 OR 30%), Method: PREINCUBATION): inactive; negative | mutagenic call (Test System: MOUSE LYMPHOMA, Strain/Indicator: L5178Y (TK+/TK-), Metabolic Activation: NONE, Method: SUSPENSION/PLATE): inactive; negative. reevaluation of results: negative | mutagenic call (Test System: MOUSE LYMPHOMA, Strain/Indicator: L5178Y (TK+/TK-), Metabolic Activation: RAT, LIVER, S-9, AROCLOR 1254, Method: SUSPENSION/PLATE): active; positive. reevaluation of results: equivocal

O=C1c2cc(O)cc(O)c2C(=O)c2c1cc1c(c2O)[C@@H]2C=CO[C@@H]2O1
mutagenic call (Test System: UDS RODENT HEPATOCYTES, Strain/Indicator: THY INCORP, Metabolic Activation: NONE, Method: AUTORADIOGRAPHY): active; positive

CC(O)CNCC(C)O (stereo unspecified)
mutagenic call [5]: inactive; negative | mutagenic call [2]: inactive; negative | mutagenic call [6]: inactive; negative | mutagenic call [7]: inactive; negative | mutagenic call [3]: inactive; negative | mutagenic call [8]: inactive; negative | mutagenic call [9]: inactive; negative | mutagenic call [4]: inactive; negative | mutagenic call [10]: inactive; negative | mutagenic call (Test System: AMES SALMONELLA TYPHIMURIUM, Strain/Indicator: TA1537, Metabolic Activation: HAMSTER, LIVER, S-9, AROCLOR 1254 (10%), Method: PREINCUBATION): inactive; negative | mutagenic call [11]: inactive; negative | mutagenic call (Test System: AMES SALMONELLA TYPHIMURIUM, Strain/Indicator: TA1537, Metabolic Activation: RAT, LIVER, S-9, AROCLOR 1254 (10%), Method: PREINCUBATION): inactive; negative

N=C(N)c1ccc(-c2cc3ccc(C(=N)N)cc3s2)cc1
mutagenic call [12]: inactive; negative | mutagenic call (Test System: AMES SALMONELLA TYPHIMURIUM, Strain/Indicator: TA98, Metabolic Activation: RAT, LIVER, S-9, PHENOBARBITAL, Method: STANDARD PLATE): inactive; negative | mutagenic call [13]: inactive; negative | mutagenic call (Test System: AMES SALMONELLA TYPHIMURIUM, Strain/Indicator: TA100, Metabolic Activation: RAT, LIVER, S-9, PHENOBARBITAL, Method: STANDARD PLATE): inactive; negative

O=P1(N(CCCl)CCCl)NC(OO)CCO1 (stereo unspecified)
mutagenic call (Test System: UDS HUMAN LYMPHOCYTES, Strain/Indicator: THY INCORP (NON-S-PHASE), Metabolic Activation: NONE, Method: LIQUID SCINTILLATION COUNTING): active; positive

CCCCCCC(=O)O
mutagenic call (Test System: AMES SALMONELLA TYPHIMURIUM, Strain/Indicator: TA97, Metabolic Activation: HAMSTER, LIVER, S-9, AROCLOR 1254 (10%), Method: PREINCUBATION): inactive; negative | mutagenic call (Test System: AMES SALMONELLA TYPHIMURIUM, Strain/Indicator: TA97, Metabolic Activation: HAMSTER, LIVER, S-9, AROCLOR 1254 (30%), Method: PREINCUBATION): inactive; negative | mutagenic call [1]: inactive; negative | mutagenic call (Test System: AMES SALMONELLA TYPHIMURIUM, Strain/Indicator: TA97, Metabolic Activation: RAT, LIVER, S-9, AROCLOR 1254 (10%), Method: PREINCUBATION): inactive; negative | mutagenic call (Test System: AMES SALMONELLA TYPHIMURIUM, Strain/Indicator: TA97, Metabolic Activation: RAT, LIVER, S-9, AROCLOR 1254 (30%), Method: PREINCUBATION): inactive; negative | mutagenic call [5]: inactive; negative | mutagenic call (Test System: AMES SALMONELLA TYPHIMURIUM, Strain/Indicator: TA98, Metabolic Activation: HAMSTER, LIVER, S-9, AROCLOR 1254 (30%), Method: PREINCUBATION): inactive; negative | mutagenic call [2]: inactive; negative | mutagenic call [6]: inactive; negative | mutagenic call (Test System: AMES SALMONELLA TYPHIMURIUM, Strain/Indicator: TA98, Metabolic Activation: RAT, LIVER, S-9, AROCLOR 1254 (30%), Method: PREINCUBATION): inactive; negative | mutagenic call [7]: inactive; negative | mutagenic call (Test System: AMES SALMONELLA TYPHIMURIUM, Strain/Indicator: TA100, Metabolic Activation: HAMSTER, LIVER, S-9, AROCLOR 1254 (30%), Method: PREINCUBATION): inactive; negative | mutagenic call [3]: inactive; negative | mutagenic call [8]: inactive; negative | mutagenic call (Test System: AMES SALMONELLA TYPHIMURIUM, Strain/Indicator: TA100, Metabolic Activation: RAT, LIVER, S-9, AROCLOR 1254 (30%), Method: PREINCUBATION): inactive; negative | mutagenic call [9]: inactive; negative | mutagenic call (Test System: AMES SALMONELLA TYPHIMURIUM, Strain/Indicator: TA1535, Metabolic Activation: HAMSTER, LIVER, S-9, AROCLOR 1254 (30%), Method: PREINCUBATION): inactive; negative | mutagenic call [4]: inactive; negative | mutagenic call [10]: inactive; negative | mutagenic call (Test System: AMES SALMONELLA TYPHIMURIUM, Strain/Indicator: TA1535, Metabolic Activation: RAT, LIVER, S-9, AROCLOR 1254 (30%), Method: PREINCUBATION): inactive; negative | mutagenic call (Test System: AMES SALMONELLA TYPHIMURIUM, Strain/Indicator: TA1537, Metabolic Activation: HAMSTER, LIVER, S-9, AROCLOR 1254 (30%), Method: PREINCUBATION): inactive; negative | mutagenic call [11]: inactive; negative | mutagenic call (Test System: AMES SALMONELLA TYPHIMURIUM, Strain/Indicator: TA1537, Metabolic Activation: RAT, LIVER, S-9, AROCLOR 1254 (30%), Method: PREINCUBATION): inactive; negative

COP(=S)(NC(C)C)Oc1ccccc1C(=O)OC(C)C (stereo unspecified)
mutagenic call [12]: inactive; negative | mutagenic call (Test System: AMES SALMONELLA TYPHIMURIUM, Strain/Indicator: TA98, Metabolic Activation: RAT, LIVER, S-9, PCB, Method: STANDARD PLATE): inactive; negative | mutagenic call [13]: inactive; negative | mutagenic call (Test System: AMES SALMONELLA TYPHIMURIUM, Strain/Indicator: TA100, Metabolic Activation: RAT, LIVER, S-9, PCB, Method: STANDARD PLATE): inactive; negative
